# Test results: ChEMBL document CHEMBL1153245, “A profile of the in vitro anti-tumor activity of imidazolium-based ionic liquids” (2010)
# Assays:
# Type in all cases: functional
# [1] = system: MDA-MB-231; assay: Anticancer activity against human MDA-MB-231 cells after 48 hrs by sulforhodamine B assay; conditions: for CC50: read-out: LC50 (the source's name)
# [2] = system: M14; assay: Anticancer activity against human M14 cells after 48 hrs by sulforhodamine B assay
# [3] = system: SK-MEL-5; assay: Anticancer activity against human SK-MEL-5 cells assessed cell growth at 10 uM after 48 hrs by sulforhodamine B assay relative to control
# [4] = system: NCI/ADR-RES; assay: Anticancer activity against human NCI/ADR-RES cells after 48 hrs by sulforhodamine B assay
# [5] = system: UACC-257; assay: Anticancer activity against human UACC257 cells assessed cell growth at 10 uM after 48 hrs by sulforhodamine B assay relative to control
# [6] = system: NCI-H226; assay: Anticancer activity against human NCI-H226 cells assessed cell growth at 10 uM after 48 hrs by sulforhodamine B assay relative to control
# [7] = system: NCI-H460; assay: Anticancer activity against human NCI-H460 cells assessed cell growth at 10 uM after 48 hrs by sulforhodamine B assay relative to control
# [8] = system: HOP-92; assay: Anticancer activity against human HOP92 cells after 48 hrs by sulforhodamine B assay
# [9] = system: TK-10; assay: Anticancer activity against human TK10 cells assessed cell growth at 10 uM after 48 hrs by sulforhodamine B assay relative to control
# [10] = system: OVCAR-5; assay: Anticancer activity against human OVCAR5 cells assessed cell growth at 10 uM after 48 hrs by sulforhodamine B assay relative to control
# [11] = system: SF-268; assay: Anticancer activity against human SF268 cells assessed cell growth at 10 uM after 48 hrs by sulforhodamine B assay relative to control
# [12] = system: OVCAR-4; assay: Anticancer activity against human OVCAR4 cells after 48 hrs by sulforhodamine B assay
# [13] = system: 786-0; assay: Anticancer activity against human 786-0 cells after 48 hrs by sulforhodamine B assay
# [14] = system: A549; assay: Anticancer activity against human A549 cells after 48 hrs by sulforhodamine B assay
# [15] = system: COLO 205; assay: Anticancer activity against human COLO205 cells after 48 hrs by sulforhodamine B assay
# [16] = system: HOP-62; assay: Anticancer activity against human HOP62 cells assessed cell growth at 10 uM after 48 hrs by sulforhodamine B assay relative to control
# [17] = system: LOX IMVI; assay: Anticancer activity against human LOXIMVI cells after 48 hrs by sulforhodamine B assay; conditions: for CC50: read-out: LC50 (the source's name)
# [18] = system: SK-MEL-2; assay: Anticancer activity against human SK-MEL-2 cells assessed cell growth at 10 uM after 48 hrs by sulforhodamine B assay relative to control
# [19] = system: OVCAR-8; assay: Anticancer activity against human OVCAR8 cells after 48 hrs by sulforhodamine B assay
# [20] = system: HCT-15; assay: Anticancer activity against human HCT15 cells assessed cell growth at 10 uM after 48 hrs by sulforhodamine B assay relative to control
# [21] = system: BT-549; assay: Anticancer activity against human BT549 cells after 48 hrs by sulforhodamine B assay; conditions: for CC50: read-out: LC50 (the source's name)
# [22] = system: HCT-116; assay: Anticancer activity against human HCT116 cells after 48 hrs by sulforhodamine B assay
# [23] = system: MDA-MB-468; assay: Anticancer activity against human MDA-MB-468 cells after 48 hrs by sulforhodamine B assay
# [24] = system: MCF7; assay: Anticancer activity against human MCF7 cells after 48 hrs by sulforhodamine B assay
# [25] = system: HOP-92; assay: Anticancer activity against human HOP92 cells assessed cell growth at 10 uM after 48 hrs by sulforhodamine B assay relative to control
# [26] = system: NCI-H322M; assay: Anticancer activity against human NCI-H322M cells after 48 hrs by sulforhodamine B assay
# [27] = system: UO-31; assay: Anticancer activity against human UO31 cells after 48 hrs by sulforhodamine B assay
# [28] = system: SR; assay: Anticancer activity against human SR cells after 48 hrs by sulforhodamine B assay; conditions: for CC50: read-out: LC50 (the source's name)
# [29] = system: MDA-MB-231; assay: Anticancer activity against human MDA-MB-231 cells assessed cell growth at 10 uM after 48 hrs by sulforhodamine B assay relative to control
# [30] = system: OVCAR-3; assay: Anticancer activity against human OVCAR-3 cells after 48 hrs by sulforhodamine B assay
# [31] = system: UACC-257; assay: Anticancer activity against human UACC257 cells after 48 hrs by sulforhodamine B assay
# [32] = system: UACC-62; assay: Anticancer activity against human UACC62 cells after 48 hrs by sulforhodamine B assay
# [33] = system: HOP-62; assay: Anticancer activity against human HOP62 cells after 48 hrs by sulforhodamine B assay
# [34] = system: ACHN; assay: Anticancer activity against human ACHN cells assessed cell growth at 10 uM after 48 hrs by sulforhodamine B assay relative to control
# [35] = system: K562; assay: Anticancer activity against human K562 cells assessed cell growth at 10 uM after 48 hrs by sulforhodamine B assay relative to control
# [36] = system: CAKI-1; assay: Anticancer activity against human Caki1 cells after 48 hrs by sulforhodamine B assay
# [37] = system: TK-10; assay: Anticancer activity against human TK10 cells after 48 hrs by sulforhodamine B assay
# [38] = system: NCI-H522; assay: Anticancer activity against human NCI-H522 cells after 48 hrs by sulforhodamine B assay
# [39] = system: KM12; assay: Anticancer activity against human KM12 cells after 48 hrs by sulforhodamine B assay; conditions: for CC50: read-out: LC50 (the source's name)
# [40] = system: OVCAR-5; assay: Anticancer activity against human OVCAR5 cells after 48 hrs by sulforhodamine B assay
# [41] = system: HCT-15; assay: Anticancer activity against human HCT15 cells after 48 hrs by sulforhodamine B assay
# [42] = Homo sapiens, NCI/ADR-RES, 48 h
smiles,measurement,setting,value
CCCCCCCCCCCCCCCCCC[n+]1ccn(C)c1.[Cl-],GI50,[1],0.449 µM
same,CC50,"[1]; Homo sapiens, MDA-MB-231, 48 h",4.86 µM
same,GI50,"[2]; Homo sapiens, M14, 48 h",0.33 µM
same,LC50 (50% lethal concentration),"[2]; Homo sapiens, M14, 48 h",6.63 µM
same,Activity,[3],-81.11%
same,GI50,[4]; [42],1.66 µM
same,LC50,[4]; [42],> 100 µM
same,Activity,[5],-38%
same,Activity,[6],-54.04%
same,Activity,[7],-62.94%
same,GI50,"[8]; Homo sapiens, HOP-92, 48 h",1.14 µM
same,CC50,"[8]; Homo sapiens, HOP-92, 48 h, read-out: LC50 (the source's name)",6.85 µM
same,Activity,[9],-70.24%
same,Activity,[10],-61.54%
same,Activity,[11],-45.4%
same,GI50,"[12]; Homo sapiens, OVCAR-4, 48 h",0.778 µM
same,CC50,[12]; read-out: LC50 (the source's name),> 100 µM
same,GI50,"[13]; Homo sapiens, 786-0, 48 h",0.669 µM
same,LC50 (50% lethal concentration),"[13]; Homo sapiens, 786-0, 48 h",6.02 µM
same,GI50,"[14]; Homo sapiens, A549, 48 h",0.639 µM
same,LC50 (concentration killing 50% of cells),"[14]; Homo sapiens, A549, 48 h",10 µM
same,GI50,"[15]; Homo sapiens, COLO 205, 48 h",0.285 µM
same,CC50,"[15]; Homo sapiens, COLO 205, 48 h, read-out: LC50 (the source's name)",> 100 µM
same,Activity,[16],-58.64%
same,GI50,[17],0.189 µM
same,CC50,[17],1.48 µM
same,Activity,[18],-61.28%
same,GI50,"[19]; Homo sapiens, OVCAR-8, 48 h",0.998 µM
same,LC50,"[19]; Homo sapiens, OVCAR-8, 48 h",7.41 µM
same,Activity,[20],3.3%
same,GI50,[21],0.557 µM
same,CC50,"[21]; Homo sapiens, BT-549, 48 h",5.33 µM
same,GI50,"[22]; Homo sapiens, HCT-116, 48 h",0.343 µM
same,CC50,"[22]; Homo sapiens, HCT-116, 48 h, read-out: LC50 (the source's name)",> 100 µM
same,GI50,[23],0.066 µM
same,LC50,"[23]; Homo sapiens, MDA-MB-468, 48 h",7.25 µM
same,GI50,[24],0.356 µM
same,LC50 (50% cell kill),"[24]; Homo sapiens, MCF7, 48 h",3.78 µM
same,Activity,[25],-51.3%
same,LC50,[26],5.95 µM
same,GI50,"[26]; Homo sapiens, NCI-H322M, 48 h",1.3 µM
same,GI50,"[27]; Homo sapiens, UO-31, 48 h",0.608 µM
same,LC50,"[27]; Homo sapiens, UO-31, 48 h",5.94 µM
same,GI50,[28],0.154 µM
same,CC50,[28],3.79 µM
same,Activity,[29],-66.25%
same,GI50,"[30]; Homo sapiens, OVCAR-3, 48 h",0.375 µM
same,LC50 (50% lethal concentration),"[30]; Homo sapiens, OVCAR-3, 48 h",4.01 µM
same,GI50,[31],0.125 µM
same,LC50,"[31]; Homo sapiens, UACC-257, 48 h",6.77 µM
same,GI50,"[32]; Homo sapiens, UACC-62, 48 h",0.848 µM
same,LC50,"[32]; Homo sapiens, UACC-62, 48 h",5.07 µM
same,GI50,"[33]; Homo sapiens, HOP-62, 48 h",0.967 µM
same,CC50,"[33]; Homo sapiens, HOP-62, 48 h, read-out: LC50 (the source's name)",7.8 µM
same,Activity,[34],-12.35%
same,Activity,[35],28.31%
same,GI50,"[36]; Homo sapiens, CAKI-1, 48 h",0.429 µM
same,LC50,"[36]; Homo sapiens, CAKI-1, 48 h",7.45 µM
same,GI50,"[37]; Homo sapiens, TK-10, 48 h",0.244 µM
same,LC50,"[37]; Homo sapiens, TK-10, 48 h",2.77 µM
same,GI50,[38],0.364 µM
same,LC50,"[38]; Homo sapiens, NCI-H522, 48 h",6.45 µM
same,GI50,"[39]; Homo sapiens, KM12, 48 h",0.275 µM
same,CC50,"[39]; Homo sapiens, KM12, 48 h",2.96 µM
same,GI50,"[40]; Homo sapiens, OVCAR-5, 48 h",0.819 µM
same,CC50,"[40]; Homo sapiens, OVCAR-5, 48 h, read-out: LC50 (the source's name)",7.89 µM
same,GI50,[41],0.461 µM
same,CC50,"[41]; Homo sapiens, HCT-15, 48 h, read-out: LC50 (the source's name)",4.11 µM
CCCCCCCCCCCC[n+]1ccn(C)c1.F[B-](F)(F)F,GI50,[1],4.68 µM
same,CC50,[1],64.2 µM
same,GI50,[2],4.15 µM
same,Activity,[3],-19.73%
same,GI50,[4],39.7 µM
same,Activity,[5],-7.74%
same,Activity,[6],37.19%
same,Activity,[7],23.03%
same,GI50,[8],7.84 µM
same,Activity,[9],24.24%
same,Activity,[10],48.72%
same,Activity,[11],66.79%
same,GI50,[12],2.59 µM
same,GI50,[13],5.77 µM
same,GI50,[14],7.14 µM
same,GI50,[15],3.41 µM
same,Activity,[16],28.7%
same,GI50,[17],1.36 µM
same,CC50,[17],34.9 µM
same,Activity,[18],18.52%
same,GI50,[19],3.25 µM
same,Activity,[20],82.38%
same,GI50,[21],2.38 µM
same,CC50,[21],51.9 µM
same,GI50,[22],2.36 µM
same,GI50,[23],0.556 µM
same,GI50,[24],1.95 µM
same,Activity,[25],46.45%
same,GI50,[26],24.6 µM
same,GI50,[27],15.9 µM
same,GI50,[28],1.06 µM
same,CC50,[28],> 100 µM
same,Activity,[29],26.48%
same,GI50,[30],3.33 µM
same,GI50,[31],3.06 µM
same,GI50,[32],4.25 µM
same,GI50,[33],9.48 µM
same,Activity,[34],54.07%
same,Activity,[35],80.69%
same,GI50,[36],2.99 µM
same,GI50,[37],2.04 µM
same,GI50,[38],2.96 µM
same,GI50,[39],1.85 µM
same,CC50,[39],23 µM
same,GI50,[40],7.49 µM
same,GI50,[41],18.1 µM
